According to PubChem BioAssay (NCI):
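Cells were grown in 96-well plates and exposed to each compound for 48 hours at five concentrations; endpoints were interpolated linearly between bracketing concentrations, or set to the highest concentration if not reached. GI50: concentration for 50% inhibition of growth. TGI: total growth inhibition.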

Tests used:
Experiment in all cases: NCI anticancer screen, dose series, 48 h
T-47D breast = test system: T-47D breast
BT-549 breast = test system: BT-549 breast
HOP-92 NSCLC = test system: HOP-92 NSCLC
HL-60(TB) leukemia = test system: HL-60(TB) leukemia
786-0 renal = test system: 786-0 renal
MDA-N = test system: MDA-N
SNB-75 CNS = test system: SNB-75 CNS
MDA-MB-231 breast = test system: MDA-MB-231 breast
M19-MEL melanoma = test system: M19-MEL melanoma
KM20L2 colon = test system: KM20L2 colon
HCC-2998 colon = test system: HCC-2998 colon

## OC1C=C2C3CN(Cc4cc5c(cc43)OCO5)[C@H]2C[C@@H]1O (some centres undefined)
T-47D breast
  TGI: 6.54 µM
BT-549 breast
  TGI: 14.7 µM
HOP-92 NSCLC
  TGI: 46.9 µM
HL-60(TB) leukemia
  TGI: 19.3 µM
786-0 renal
  TGI: 36.3 µM
MDA-N
  TGI: 37.3 µM
SNB-75 CNS
  TGI: 4.56 µM
MDA-MB-231 breast
  TGI: 68.5 µM

## O=C1CCC(NC(=O)Cc2ccc(O)cc2)C(=O)N1 (centres undefined)
HOP-92 NSCLC
  TGI: > 2500 µM
M19-MEL melanoma
  TGI: > 2500 µM
SNB-75 CNS
  TGI: > 2500 µM
KM20L2 colon
  TGI: > 2500 µM

## O=C(O)C(Cc1ccccc1)N1C(=O)c2ccccc2C1=O (centres undefined)
T-47D breast
  TGI: > 100 µM
BT-549 breast
  TGI: > 100 µM
HOP-92 NSCLC
  TGI: > 100 µM
HCC-2998 colon
  TGI: > 100 µM
HL-60(TB) leukemia
  TGI: 10.8 µM
786-0 renal
  TGI: > 100 µM
MDA-N
  TGI: > 100 µM
MDA-MB-231 breast
  TGI: > 100 µM

## N=C(N)C(N=Nc1ccccc1)C(=N)N (centres undefined)
T-47D breast
  TGI: > 100 µM
BT-549 breast
  TGI: > 100 µM
HOP-92 NSCLC
  TGI: 83.9 µM
HCC-2998 colon
  TGI: 32.9 µM
HL-60(TB) leukemia
  TGI: 54.2 µM
786-0 renal
  TGI: > 100 µM
MDA-N
  TGI: 61.2 µM
MDA-MB-231 breast
  TGI: 97.8 µM

## O=C1CC(N2C(=O)/C(=C/C(Cl)=C\c3ccc([N+](=O)[O-])cc3)SC2=S)C(=O)N1c1ccc(Cl)cc1 (centres undefined)
T-47D breast
  GI50: 2030 nM
  TGI: 6.34 µM
BT-549 breast
  GI50: 1750 nM
  TGI: 3.74 µM
HOP-92 NSCLC
  GI50: 2580 nM
  TGI: 6.79 µM
HCC-2998 colon
  GI50: 1590 nM
  TGI: 3.03 µM
HL-60(TB) leukemia
  GI50: 1450 nM
  TGI: 8.86 µM
MDA-MB-231 breast
  GI50: 3750 nM
  TGI: 47.8 µM

## N#CCc1[nH]nc2nc(SCc3ccccc3)nc(N3CCCCC3)c12
T-47D breast
  TGI: 39.1 µM
BT-549 breast
  TGI: 34.1 µM
HOP-92 NSCLC
  TGI: 31.6 µM
HCC-2998 colon
  TGI: 31.9 µM
HL-60(TB) leukemia
  TGI: 43.6 µM
786-0 renal
  TGI: 31.8 µM
SNB-75 CNS
  TGI: 33.7 µM

## CCn1cc(C(=O)O)c(=O)c2cc(F)c(N3CCN(Cn4c(O)c(N=NC(=O)c5ccncc5)c5cc(Cl)ccc54)CC3)cc21
T-47D breast
  TGI: > 100 µM
BT-549 breast
  TGI: > 100 µM
HOP-92 NSCLC
  TGI: > 100 µM
HCC-2998 colon
  TGI: > 100 µM
HL-60(TB) leukemia
  TGI: 37 µM
786-0 renal
  TGI: > 100 µM
MDA-N
  TGI: > 100 µM
SNB-75 CNS
  TGI: 70.1 µM
MDA-MB-231 breast
  TGI: > 100 µM

## O=C1c2ccccc2-c2ccc(O)cc21
T-47D breast
  TGI: 44.8 µM
HL-60(TB) leukemia
  TGI: 75.4 µM
786-0 renal
  TGI: > 100 µM
SNB-75 CNS
  TGI: > 100 µM
MDA-MB-231 breast
  TGI: 44.2 µM

## C=C1C(C2(C)C=CC(=O)OC3(C)COC(=O)CC32)C(OC=O)C(OC(=O)C(O)C(C)CC)C2(C)C(c3ccoc3)CC(OC(C)=O)C12O (centres undefined)
T-47D breast
  TGI: > 100 µM
BT-549 breast
  TGI: > 100 µM
HOP-92 NSCLC
  TGI: > 100 µM
HCC-2998 colon
  TGI: > 100 µM
HL-60(TB) leukemia
  TGI: 9.41 µM
786-0 renal
  TGI: > 100 µM
MDA-N
  TGI: > 100 µM
SNB-75 CNS
  TGI: > 100 µM
MDA-MB-231 breast
  TGI: > 100 µM

## O=c1c2c([nH]c3nccn13)CCCC2
T-47D breast
  TGI: > 10 µM
HCC-2998 colon
  TGI: > 10 µM
HL-60(TB) leukemia
  TGI: > 10 µM
SNB-75 CNS
  TGI: > 10 µM
MDA-MB-231 breast
  TGI: > 10 µM

## CC(=O)C1=C(O)C2(O)C(=O)c3c(c(C)c4ccc(C)c(O)c4c3O)CC2C(N)C1=O (centres undefined)
T-47D breast
  GI50: 2330 nM
  TGI: 30.5 µM
BT-549 breast
  GI50: 762 nM
  TGI: 13.6 µM
HOP-92 NSCLC
  TGI: 6.2 µM
HCC-2998 colon
  TGI: 15 µM
HL-60(TB) leukemia
  TGI: 5.07 µM
786-0 renal
  TGI: 16.8 µM
M19-MEL melanoma
  TGI: 11 µM
SNB-75 CNS
  TGI: 16.7 µM
MDA-MB-231 breast
  GI50: 730 nM
  TGI: 4.99 µM
KM20L2 colon
  TGI: 14.7 µM

## CCC(C)C(NC(=O)C(CCCCN)NC(=O)C(NC(=O)C(CCC(N)=O)NC(=O)C(CCCNC(=N)N)NC(C)=O)C(C)CC)C(=O)NC(Cc1c[nH]c2ccccc12)C(=O)NC(Cc1ccccc1)C(=O)NC(CCC(N)=O)C(=O)NC(CC(N)=O)C(=O)NC(CCCNC(=N)N)C(=O)NC(CCCNC(=N)N)C(=O)NC(CCSC)C(=O)NC(CCCCN)C(=O)NC(Cc1c[nH]c2ccccc12)C(=O)NC(CCCCN)C(=O)NC(CCCCN)C(N)=O (centres undefined)
T-47D breast
  TGI: > 50 µM
BT-549 breast
  TGI: > 50 µM
HOP-92 NSCLC
  TGI: > 50 µM
HCC-2998 colon
  TGI: > 50 µM
HL-60(TB) leukemia
  TGI: > 50 µM
786-0 renal
  TGI: 42.1 µM
MDA-N
  TGI: > 50 µM
MDA-MB-231 breast
  TGI: 41.3 µM

## O=C(NN1C(=O)/C(=C/c2ccc(Cl)cc2)N=C1c1ccccc1)c1c(Cl)c(Cl)c(Cl)c(Cl)c1-c1nc2ccccc2[nH]1
T-47D breast
  TGI: 9.72 µM
BT-549 breast
  TGI: 32.8 µM
HOP-92 NSCLC
  TGI: 37.3 µM
HCC-2998 colon
  TGI: 31.8 µM
HL-60(TB) leukemia
  TGI: 50.5 µM
786-0 renal
  TGI: 55.9 µM
MDA-N
  TGI: 31.5 µM
SNB-75 CNS
  TGI: 52.6 µM
